Measurements from patent publication US9145407B2, “Sulfonamide compounds” (Pfizer Limited, priority 2010, dated 2015).
Counter-ions that a name gives are not always drawn.

molecular target: T1, Nav1.7 (or SCN9A) channel (Homo sapiens, UniProt Q15858); test: Nav1.7 (hSCN9A) whole-cell electrophysiology, PatchXpress platform; type: cell-based; settings: HEK cells stably expressing hSCN9A, held at V1/2 of inactivation, calculated from single point % inhibition, read-out: Nav1.7 EIC50 (estimated IC-50)
T1 construct: expressed in transfected cells; host or cells: HEK cells, stably transfected, G-418 selected
Method: The ability of the compounds of list (I) to block the Nav1.7 (or SCN9A) channel was measured using the assay described below.
Human Embryonic Kidney (HEK) cells were transfected with an hSCN9A construct using lipofectamine reagent (Invitrogen), using standard techniques. Cells stably expressing the hSCN9A constructs were identified by their resistance to G-418 (400 μg/ml). Clones were screened for expression using the whole-cell voltage-clamp technique.
HEK cells stably transfected with hSCN9A were maintained in DMEM medium supplemented with 10% heat-inactivated fetal bovine serum and 400 μg/ml G-418 in an incubator at 37° C. with a humidified atmosphere of 10% CO2. For HTS, cells were harvested from flasks by trypsinization and replated in an appropriate multi-well plate (typically 96 or 384 wells/plate) such that confluence would be achieved within 24 hours of plating. For electrophysiological studies, cells were removed from the culture flask by brief trypsinization and re-plated at low density onto glass cover slips. Cells were typically used for electrophysiological experiments within 24 to 72 hours after plating.
Cover slips containing HEK cells expressing hSCN9A were placed in a bath on the stage of an inverted microscope and perfused (approximately 1 ml/minutes) with extracellular solution of the following composition: 138 mM NaCl, 2 mM CaCl2, 5.4 mM KCl, 1 mM MgCl2, 10 mM glucose, and 10 mM HEPES, pH 7.4, with NaOH. […] The osmolarity of the extracellular and intracellular solutions was 300 mOsm/kg and 295 mOsm/kg, respectively. All recordings were made at room temperature (22-24° C.) using AXOPATCH 200B amplifiers and PCLAMP software (Axon Instruments, Burlingame, Calif.).
hSCN9A currents in HEK cells were measured using the whole-cell configuration of the patch-clamp technique (Hamill et al., 1981). Uncompensated series resistance was typically 2 to 5 mega ohms and >85% series resistance compensation was routinely achieved. As a result, voltage errors were negligible and no correction was applied. Current records were acquired at 20 to 50 KHz and filtered at 5 to 10 KHz.
HEK cells stably transfected with hSCN9A were viewed under Hoffman contrast optics and placed in front of an array of flow pipes emitting either control or compound-containing extracellular solutions. All compounds were dissolved in dimethyl sulfoxide to make 10 mM stock solutions, which were then diluted into extracellular solution to attain the final concentrations desired. […] The voltage-dependence of inactivation was determined by applying a series of depolarizing prepulses (8 sec long in 10 mV increments) from a negative holding potential. The voltage was then immediately stepped to 0 mV to assess the magnitude of the sodium current. Currents elicited at 0 mV were plotted as a function of prepulse potential to allow estimation of the voltage at which 50% of the channels were inactivated (midpoint of inactivation or V1/2). Compounds were tested for their ability to inhibit hSCN9A sodium channels by activating the channel with a 20 msec voltage step to 0 mV following an 8 second conditioning prepulse to the empirically determined V1/2. Compound effect (% inhibition) was determined by difference in current amplitude before and after application of test compounds. For ease of comparison, “estimated IC-50” (EIC50) values were calculated from single point electrophysiology data by the following equation, (tested concentration, uM)×(100−% inhibition/% inhibition). Inhibition values <20% and >80% were excluded from the calculation.
Electrophysiological assays were conducted with PatchXpress 7000 hardware and associated software (Molecular Devices Corp). All assay buffers and solutions were identical to those used in conventional whole-cell voltage clamp experiments described above. hSCN9A cells were grown as above to 50%-80% confluency and harvested by trypsinization. […]

T1 sequence (Q15858 whole entry): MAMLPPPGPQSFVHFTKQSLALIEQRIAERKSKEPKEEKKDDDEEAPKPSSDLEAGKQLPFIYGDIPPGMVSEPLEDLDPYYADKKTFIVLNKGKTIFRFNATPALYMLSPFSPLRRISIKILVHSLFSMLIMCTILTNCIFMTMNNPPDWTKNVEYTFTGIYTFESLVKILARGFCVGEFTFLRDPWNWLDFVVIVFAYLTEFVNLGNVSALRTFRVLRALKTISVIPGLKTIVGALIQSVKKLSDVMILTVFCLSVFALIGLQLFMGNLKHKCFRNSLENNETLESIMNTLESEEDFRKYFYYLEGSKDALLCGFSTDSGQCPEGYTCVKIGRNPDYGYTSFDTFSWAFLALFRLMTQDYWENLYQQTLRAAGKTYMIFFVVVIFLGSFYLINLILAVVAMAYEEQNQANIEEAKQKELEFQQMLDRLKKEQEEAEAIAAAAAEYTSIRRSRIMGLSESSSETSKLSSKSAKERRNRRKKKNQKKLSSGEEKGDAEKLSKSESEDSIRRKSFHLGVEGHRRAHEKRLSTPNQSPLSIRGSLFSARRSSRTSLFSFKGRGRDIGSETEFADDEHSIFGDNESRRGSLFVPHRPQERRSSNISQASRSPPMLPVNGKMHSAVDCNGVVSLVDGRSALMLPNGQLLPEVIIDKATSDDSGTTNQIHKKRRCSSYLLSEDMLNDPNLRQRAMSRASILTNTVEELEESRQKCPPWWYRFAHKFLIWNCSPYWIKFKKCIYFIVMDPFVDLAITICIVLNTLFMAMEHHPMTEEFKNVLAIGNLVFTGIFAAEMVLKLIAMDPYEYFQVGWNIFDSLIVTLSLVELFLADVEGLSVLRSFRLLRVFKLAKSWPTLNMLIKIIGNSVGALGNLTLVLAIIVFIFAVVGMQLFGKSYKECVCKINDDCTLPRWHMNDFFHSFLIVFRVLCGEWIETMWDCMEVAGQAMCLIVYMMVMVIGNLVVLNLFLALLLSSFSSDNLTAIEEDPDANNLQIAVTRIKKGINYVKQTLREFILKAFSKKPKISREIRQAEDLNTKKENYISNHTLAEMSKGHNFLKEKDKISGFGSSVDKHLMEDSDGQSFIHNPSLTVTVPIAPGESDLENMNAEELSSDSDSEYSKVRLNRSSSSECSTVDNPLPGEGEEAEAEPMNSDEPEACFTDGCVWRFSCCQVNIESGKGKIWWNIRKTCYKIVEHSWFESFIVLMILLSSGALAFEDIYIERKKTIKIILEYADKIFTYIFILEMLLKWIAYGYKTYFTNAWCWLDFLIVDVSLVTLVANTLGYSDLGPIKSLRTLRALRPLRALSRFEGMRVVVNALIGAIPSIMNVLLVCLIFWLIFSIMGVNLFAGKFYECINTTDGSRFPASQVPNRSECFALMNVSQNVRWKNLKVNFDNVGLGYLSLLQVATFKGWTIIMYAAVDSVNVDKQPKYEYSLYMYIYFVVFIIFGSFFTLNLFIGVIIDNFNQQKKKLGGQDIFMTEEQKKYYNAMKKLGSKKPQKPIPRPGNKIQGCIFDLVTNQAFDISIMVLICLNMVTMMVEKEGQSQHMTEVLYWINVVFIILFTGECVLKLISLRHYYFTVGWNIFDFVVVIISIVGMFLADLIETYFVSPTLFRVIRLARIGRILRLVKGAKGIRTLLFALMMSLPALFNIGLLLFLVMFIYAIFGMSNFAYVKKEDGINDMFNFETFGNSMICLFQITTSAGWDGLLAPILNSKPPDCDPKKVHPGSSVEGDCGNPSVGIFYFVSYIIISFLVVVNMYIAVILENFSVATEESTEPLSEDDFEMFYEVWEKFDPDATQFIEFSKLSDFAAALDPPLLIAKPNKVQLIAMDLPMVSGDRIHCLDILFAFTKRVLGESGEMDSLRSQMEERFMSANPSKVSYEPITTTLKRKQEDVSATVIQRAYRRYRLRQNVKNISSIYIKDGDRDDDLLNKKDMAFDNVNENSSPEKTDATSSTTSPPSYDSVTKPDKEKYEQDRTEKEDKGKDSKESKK

| SMILES | IC50 [µM] |
| --- | --- |
| Nc1cc(-c2cc(Cl)ccc2Oc2cc(F)c(S(=O)(=O)Nc3cscn3)cc2Cl)ccn1 [Example 10, 4-[2-(2-Aminopyridin-4-yl)-4-chlorophenoxy]-5-chloro-2-fluoro-N-1,3-thiazol-4-ylbenzenesulfonamide trifluoroacetate] | 0.0108 |
| O=S(=O)(Nc1cscn1)c1cc(Cl)c(Oc2ccc(OC(F)(F)F)cc2-c2ccnnc2)cc1F [Example 12, 5-Chloro-2-fluoro-4-[2-pyridazin-4-yl-4-(trifluoromethoxy)phenoxy]-N-1,3-thiazol-4-ylbenzenesulfonamide trifluoroacetate] | 0.0146 |
| Nc1cc(-c2cc(F)ccc2Oc2cc(F)c(S(=O)(=O)Nc3cscn3)cc2Cl)ccn1 [Example 7, 4-[2-(2-Aminopyridin-4-yl)-4-fluorophenoxy]-5-chloro-2-fluoro-N-1,3-thiazol-4-ylbenzenesulfonamide trifluoroacetate] | 0.0147 |
| Nc1n[nH]cc1-c1cc(OC(F)(F)F)ccc1Oc1cc(F)c(S(=O)(=O)Nc2cscn2)cc1Cl [Example 8, 4-[2-(3-Amino-1H-pyrazol-4-yl)-4-(trifluoromethoxy)phenoxy]-5-chloro-2-fluoro-N-1,3-thiazol-4-ylbenzenesulfonamide dihydrochloride] | 0.0099 |
| Cc1nnccc1-c1cc(C(F)(F)F)ccc1Oc1ccc(S(=O)(=O)Nc2ncns2)cc1C#N [Example 15, 3-Cyano-4-[2-(3-methylpyridazin-4-yl)-4-(trifluoromethyl)phenoxy]-N-1,2,4-thiadiazol-5-ylbenzenesulfonamide] | 0.0116 |
| O=S(=O)(Nc1nncs1)c1cc(Cl)c(Oc2ccc(Cl)cc2-c2ccnc(N3CCNCC3)n2)cc1F [Example 2, 5-Chloro-4-[4-chloro-2-(2-piperazin-1-ylpyrimidin-4-yl)phenoxy]-2-fluoro-N-1,3,4-thiadiazol-2-ylbenzenesulfonamide trifluoroacetate] | 0.005 |
| O=S(=O)(Nc1cscn1)c1cc(Cl)c(Oc2cc(C(F)(F)F)c(F)cc2-c2ccnnc2)cc1F [Example 4, 5-Chloro-2-fluoro-4-[4-fluoro-2-pyridazin-4-yl-5-(trifluoromethyl)phenoxy]-N-1,3-thiazol-4-ylbenzenesulfonamide bis(trifluoroacetate)] | 0.0275 |
| Cc1cc(S(=O)(=O)Nc2ncns2)ccc1Oc1ccc(C(F)(F)F)cc1-c1ccnnc1 [Example 16, 3-Methyl-4-[2-pyridazin-4-yl-4-(trifluoromethyl)phenoxy]-N-1,2,4-thiadiazol-5-ylbenzenesulfonamide] | 0.0032 |
| O=S(=O)(Nc1cscn1)c1cc(Cl)c(Oc2cc(F)c(C(F)(F)F)cc2-c2ccnnc2)cc1F [Example 3, 5-Chloro-2-fluoro-4-[5-fluoro-2-pyridazin-4-yl-4-(trifluoromethyl)phenoxy]-N-1,3-thiazol-4-ylbenzenesulfonamide] | 0.018 |
| O=S(=O)(Nc1nncs1)c1cc(Cl)c(Oc2ccc(C(F)(F)F)cc2-c2ccnn2C2CNC2)cc1F [Example 13] | 0.0011 |
| Nc1[nH]ncc1-c1cc(F)ccc1Oc1cc(F)c(S(=O)(=O)Nc2cscn2)cc1Cl [Example 11, 4-[2-(5-Amino-1H-pyrazol-4-yl)-4-fluorophenoxy]-5-chloro-2-fluoro-N-1,3-thiazol-4-ylbenzenesulfonamide trifluoroacetate] | 0.0166 |
| O=S(=O)(Nc1cscn1)c1cc(F)c(Oc2ccc(Cl)cc2-c2ccnc(N3CCNCC3)n2)cc1F [Example 17, 4-[4-chloro-2-(2-piperazin-1-ylpyrimidin-4-yl)phenoxy]2,5-difluoro-N-1,3-thiazol-4-ylbenzenesulfonamide trifluoroacetate] | 0.01 |
| Nc1cc(-c2cc(Cl)ccc2Oc2cc(F)c(S(=O)(=O)Nc3ncc(F)cn3)cc2Cl)ccn1 [Example 5, 4-[2-(2-Aminopyridin-4-yl)-4-chlorophenoxy]-5-chloro-2-fluoro-N-(5-fluoropyrimidin-2-yl)benzenesulfonamide dihydrochloride] | 0.0118 |
| O=S(=O)(Nc1cscn1)c1cc(Cl)c(Oc2ccc(Cl)cc2-c2ccnc(N3CCNCC3)n2)cc1F [Example 1, 5-Chloro-4-[4-chloro-2-(2-piperazin-1-ylpyrimidin-4-yl)phenoxy]-2-fluoro-N-1,3-thiazol-4-ylbenzenesulfonamide trifluoroacetate] | 0.0067 |
| Nc1cc(-c2cc(Cl)ccc2Oc2ccc(S(=O)(=O)Nc3nncs3)cc2Cl)ccn1 [Example 9, 4-[2-(2-Aminopyridin-4-yl)-4-chlorophenoxy]-3-chloro-N-1,3,4-thiadiazol-2-ylbenzenesulfonamide trifluoroacetate] | 0.024 |
| Nc1cc(-c2cc(C(F)(F)F)ccc2Oc2cc(F)c(S(=O)(=O)Nc3ncc(F)cn3)cc2Cl)ccn1 [Example 6, 4-[2-(2-Aminopyridin-4-yl)-4-(trifluoromethyl)phenoxy]-5-chloro-2-fluoro-N-(5-fluoropyrimidin-2-yl)benzenesulfonamide 4-methylbenzenesulfonate] | 0.0085 |
| CN1CC(n2nccc2-c2cc(C(F)(F)F)ccc2Oc2cc(F)c(S(=O)(=O)Nc3nncs3)cc2Cl)C1 [Example 14, 5-Chloro-2-fluoro-4-{4-trifluoromethyl-2-[1-(1-methylazetidin-3-yl)-1H-pyrazol-5-yl]phenoxy}-N-1,3,4-thiadiazol-ylbenzenesulfonamide] | 0.0026 |
